Measurements: ChEMBL document CHEMBL1141467, “Multi-target-directed ligands to combat neurodegenerative diseases” (J Med Chem, 2008)

What was measured:
Acetylcholinesterase [1] = target: T1, Acetylcholinesterase (Homo sapiens, UniProt P22303)
[2] = Inhibition of amyloid beta aggregation at 100 uM; set-up: scale not given: the % may be the effect or the level left
Acetylcholinesterase [3] = target: T1, Acetylcholinesterase; remark: listed apart in the source
Description: Inhibition of human AchE-induced amyloid beta aggregation

[4] = Inhibition of metal-induced amyloid beta aggregation at 50 uM; set-up: scale not given: the % may be the effect or the level left
[5] = target: T2, 5-hydroxytryptamine receptor 3A (Homo sapiens, UniProt P46098)
T2 sequence (P46098 whole entry): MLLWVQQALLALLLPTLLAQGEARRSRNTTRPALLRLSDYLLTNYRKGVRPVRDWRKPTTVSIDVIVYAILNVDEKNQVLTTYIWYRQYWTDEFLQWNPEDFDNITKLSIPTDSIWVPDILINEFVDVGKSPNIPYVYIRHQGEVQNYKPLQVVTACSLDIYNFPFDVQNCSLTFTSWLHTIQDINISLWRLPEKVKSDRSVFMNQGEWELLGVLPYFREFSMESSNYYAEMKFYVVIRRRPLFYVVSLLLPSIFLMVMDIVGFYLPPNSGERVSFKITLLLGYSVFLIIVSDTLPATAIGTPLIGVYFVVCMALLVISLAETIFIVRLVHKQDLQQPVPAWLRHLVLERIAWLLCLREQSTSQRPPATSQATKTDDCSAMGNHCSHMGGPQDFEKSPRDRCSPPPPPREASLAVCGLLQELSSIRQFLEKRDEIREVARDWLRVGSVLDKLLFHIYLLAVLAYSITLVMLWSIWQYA
Description: Binding affinity to 5HT3 receptor

Beta-secretase 1 = Beta-secretase 1 (Homo sapiens, UniProt P56817); experiment: Inhibition of BACE1
Acetylcholinesterase [6] = target: T1, Acetylcholinesterase; experiment: Inhibition of human AchE induced amyloid beta42 aggregation
[7] = target: T3, Amine oxidase [flavin-containing] A (Homo sapiens, UniProt P21397)
T3 sequence (P21397 whole entry): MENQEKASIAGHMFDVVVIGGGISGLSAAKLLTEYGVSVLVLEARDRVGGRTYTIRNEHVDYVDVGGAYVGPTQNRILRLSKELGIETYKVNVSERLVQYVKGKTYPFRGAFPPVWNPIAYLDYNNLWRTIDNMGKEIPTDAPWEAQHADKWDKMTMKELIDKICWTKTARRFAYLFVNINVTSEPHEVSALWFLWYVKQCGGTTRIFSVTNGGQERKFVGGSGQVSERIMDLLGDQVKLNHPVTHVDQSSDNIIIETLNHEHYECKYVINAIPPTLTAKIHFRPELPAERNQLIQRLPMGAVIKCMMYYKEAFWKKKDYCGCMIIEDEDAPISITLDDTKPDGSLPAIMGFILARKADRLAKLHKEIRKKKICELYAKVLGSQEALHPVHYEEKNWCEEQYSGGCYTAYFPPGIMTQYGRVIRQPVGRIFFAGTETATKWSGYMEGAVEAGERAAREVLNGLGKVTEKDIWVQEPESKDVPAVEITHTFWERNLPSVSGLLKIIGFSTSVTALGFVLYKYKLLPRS

[8] = target: T4, Amine oxidase [flavin-containing] B (Homo sapiens, UniProt P27338)
T4 sequence (P27338 whole entry): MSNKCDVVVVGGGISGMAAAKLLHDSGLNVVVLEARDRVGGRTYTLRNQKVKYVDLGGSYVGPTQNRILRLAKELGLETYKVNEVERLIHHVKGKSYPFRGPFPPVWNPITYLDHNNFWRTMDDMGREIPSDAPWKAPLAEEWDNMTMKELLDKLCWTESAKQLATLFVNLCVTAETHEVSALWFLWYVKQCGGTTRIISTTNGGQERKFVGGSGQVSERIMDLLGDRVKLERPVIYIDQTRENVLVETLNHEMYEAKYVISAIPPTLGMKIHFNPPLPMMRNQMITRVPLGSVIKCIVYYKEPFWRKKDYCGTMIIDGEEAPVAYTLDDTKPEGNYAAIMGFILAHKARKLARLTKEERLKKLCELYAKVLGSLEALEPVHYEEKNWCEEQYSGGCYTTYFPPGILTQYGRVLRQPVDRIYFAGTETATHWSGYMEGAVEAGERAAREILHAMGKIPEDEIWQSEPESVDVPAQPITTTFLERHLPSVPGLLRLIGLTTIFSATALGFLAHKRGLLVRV

[9] = target: T5, Muscarinic acetylcholine receptor M2 (Homo sapiens) (UniProt P08172); experiment: Antagonist activity at muscarinic M2 receptor; format: functional
T5 sequence (whole entry): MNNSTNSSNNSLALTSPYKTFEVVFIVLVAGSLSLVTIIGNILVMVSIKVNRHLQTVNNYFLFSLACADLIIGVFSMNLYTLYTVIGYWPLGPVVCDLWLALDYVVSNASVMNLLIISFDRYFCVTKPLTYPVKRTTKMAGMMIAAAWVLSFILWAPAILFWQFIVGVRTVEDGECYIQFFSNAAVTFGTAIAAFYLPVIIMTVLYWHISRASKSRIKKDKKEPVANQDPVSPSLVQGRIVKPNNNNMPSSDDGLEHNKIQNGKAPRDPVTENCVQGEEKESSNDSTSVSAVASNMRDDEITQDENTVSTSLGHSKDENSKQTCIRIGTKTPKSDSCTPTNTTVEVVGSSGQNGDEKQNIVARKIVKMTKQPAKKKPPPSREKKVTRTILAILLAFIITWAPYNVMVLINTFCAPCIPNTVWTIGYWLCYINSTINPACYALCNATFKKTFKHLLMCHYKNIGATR

[10] = Protection against ROS induced by oxidative stress at 10 uM in neuronal cells; format: functional
D(2) dopamine receptor = D(2) dopamine receptor (Homo sapiens, UniProt P14416); experiment: Binding affinity to human dopaminergic D2 receptor
D(3) dopamine receptor = D(3) dopamine receptor (Homo sapiens, UniProt P35462); experiment: Binding affinity to human dopaminergic D3 receptor
D(4) dopamine receptor = target: T6, D(4) dopamine receptor (Homo sapiens, UniProt P21917); experiment: Binding affinity to human dopaminergic D4 receptor
T6 sequence (P21917 whole entry): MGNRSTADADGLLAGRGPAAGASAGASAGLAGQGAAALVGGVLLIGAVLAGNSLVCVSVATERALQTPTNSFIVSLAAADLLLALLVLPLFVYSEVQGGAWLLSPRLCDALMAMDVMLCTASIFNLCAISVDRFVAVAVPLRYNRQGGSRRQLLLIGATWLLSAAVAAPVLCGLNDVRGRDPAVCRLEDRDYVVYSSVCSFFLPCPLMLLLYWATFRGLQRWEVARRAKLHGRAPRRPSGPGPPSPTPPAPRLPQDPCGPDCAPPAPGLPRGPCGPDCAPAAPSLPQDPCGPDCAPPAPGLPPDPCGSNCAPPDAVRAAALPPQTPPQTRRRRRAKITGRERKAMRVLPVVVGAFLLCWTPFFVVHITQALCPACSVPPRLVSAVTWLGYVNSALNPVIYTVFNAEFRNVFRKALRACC

[11] = target: T7, 5-hydroxytryptamine receptor 1A (Homo sapiens, UniProt P08908); experiment: Binding affinity to human 5HT1A receptor
T7 sequence (P08908 whole entry): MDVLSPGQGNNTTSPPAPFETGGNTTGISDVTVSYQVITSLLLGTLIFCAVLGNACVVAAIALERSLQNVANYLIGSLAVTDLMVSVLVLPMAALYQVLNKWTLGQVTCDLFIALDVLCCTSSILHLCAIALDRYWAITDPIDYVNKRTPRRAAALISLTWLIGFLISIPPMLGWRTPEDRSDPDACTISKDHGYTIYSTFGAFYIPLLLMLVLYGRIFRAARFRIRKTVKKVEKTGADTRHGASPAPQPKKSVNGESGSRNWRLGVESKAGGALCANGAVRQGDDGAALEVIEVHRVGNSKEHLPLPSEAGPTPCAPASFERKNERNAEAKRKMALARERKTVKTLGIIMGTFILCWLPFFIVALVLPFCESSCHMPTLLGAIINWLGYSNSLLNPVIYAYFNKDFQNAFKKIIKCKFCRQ

[12] = Inhibition of zinc-induced amyloid beta aggregation at 25 uM
Homo sapiens = species: Homo sapiens; experiment: Selectivity for human Ach over human BuCh
[13] = target: Sodium-dependent serotonin transporter (Homo sapiens, UniProt P31645)
[14] = substrate: CCN(CCCCCCNC1=CC(=O)C(NCCCCCCN(CC)Cc2ccccc2OC)=CC1=O)Cc1ccccc1OC; experiment: Binding affinity to NQQ1

T1 sequence (P22303 whole entry): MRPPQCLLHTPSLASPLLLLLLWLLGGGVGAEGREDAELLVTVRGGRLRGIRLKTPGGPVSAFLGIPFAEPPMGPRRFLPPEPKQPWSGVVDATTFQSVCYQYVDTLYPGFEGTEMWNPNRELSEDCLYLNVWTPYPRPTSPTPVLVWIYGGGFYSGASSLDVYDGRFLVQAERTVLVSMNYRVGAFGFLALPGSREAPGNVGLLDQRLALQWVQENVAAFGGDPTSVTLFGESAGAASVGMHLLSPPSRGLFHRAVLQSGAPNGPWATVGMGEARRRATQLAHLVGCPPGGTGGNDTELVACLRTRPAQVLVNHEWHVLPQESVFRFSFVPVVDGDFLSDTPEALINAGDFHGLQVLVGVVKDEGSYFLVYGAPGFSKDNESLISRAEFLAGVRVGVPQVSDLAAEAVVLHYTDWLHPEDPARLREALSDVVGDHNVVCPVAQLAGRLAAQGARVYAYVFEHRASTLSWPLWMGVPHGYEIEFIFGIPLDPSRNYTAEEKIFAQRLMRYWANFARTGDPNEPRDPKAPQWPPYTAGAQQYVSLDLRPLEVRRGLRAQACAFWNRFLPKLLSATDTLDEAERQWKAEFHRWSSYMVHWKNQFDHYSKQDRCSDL
Sequence of D(2) dopamine receptor (P14416 whole entry): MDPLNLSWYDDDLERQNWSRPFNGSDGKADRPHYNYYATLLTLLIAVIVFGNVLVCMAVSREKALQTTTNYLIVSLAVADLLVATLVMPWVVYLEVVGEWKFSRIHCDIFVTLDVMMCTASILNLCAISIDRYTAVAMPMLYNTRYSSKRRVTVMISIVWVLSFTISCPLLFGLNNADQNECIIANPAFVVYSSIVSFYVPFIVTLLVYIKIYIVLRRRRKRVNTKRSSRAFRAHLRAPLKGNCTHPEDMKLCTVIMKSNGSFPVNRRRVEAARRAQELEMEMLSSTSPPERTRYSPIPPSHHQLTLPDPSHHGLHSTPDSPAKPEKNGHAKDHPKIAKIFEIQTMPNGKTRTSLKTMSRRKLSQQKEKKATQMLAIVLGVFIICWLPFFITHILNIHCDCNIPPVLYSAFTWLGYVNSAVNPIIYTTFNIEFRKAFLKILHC
Sequence of D(3) dopamine receptor (P35462 whole entry): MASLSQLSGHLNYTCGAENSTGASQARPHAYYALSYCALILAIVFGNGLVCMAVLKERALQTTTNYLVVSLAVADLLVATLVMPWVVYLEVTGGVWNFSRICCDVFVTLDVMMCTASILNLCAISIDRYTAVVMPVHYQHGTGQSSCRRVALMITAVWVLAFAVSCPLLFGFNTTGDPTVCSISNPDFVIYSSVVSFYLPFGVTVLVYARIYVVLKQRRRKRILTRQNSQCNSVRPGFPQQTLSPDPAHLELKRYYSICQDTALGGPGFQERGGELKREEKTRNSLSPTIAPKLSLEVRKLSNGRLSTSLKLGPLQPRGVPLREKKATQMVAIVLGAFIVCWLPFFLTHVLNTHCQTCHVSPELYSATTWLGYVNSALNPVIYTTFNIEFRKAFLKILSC
Sequence of Beta-secretase 1 (P56817 whole entry): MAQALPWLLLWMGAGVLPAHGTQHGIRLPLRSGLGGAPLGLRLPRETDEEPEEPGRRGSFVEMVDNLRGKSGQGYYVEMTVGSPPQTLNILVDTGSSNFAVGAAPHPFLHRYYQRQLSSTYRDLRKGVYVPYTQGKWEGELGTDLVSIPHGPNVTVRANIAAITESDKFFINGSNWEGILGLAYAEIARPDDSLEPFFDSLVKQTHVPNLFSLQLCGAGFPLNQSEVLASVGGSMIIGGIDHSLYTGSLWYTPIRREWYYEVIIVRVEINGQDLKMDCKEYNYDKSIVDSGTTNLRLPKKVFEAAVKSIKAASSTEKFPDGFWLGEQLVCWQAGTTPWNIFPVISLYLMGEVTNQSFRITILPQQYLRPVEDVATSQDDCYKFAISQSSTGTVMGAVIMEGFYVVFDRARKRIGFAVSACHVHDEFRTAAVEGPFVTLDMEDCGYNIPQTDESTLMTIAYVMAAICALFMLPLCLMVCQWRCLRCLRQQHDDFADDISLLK
Sequence of Sodium-dependent serotonin transporter (P31645 whole entry): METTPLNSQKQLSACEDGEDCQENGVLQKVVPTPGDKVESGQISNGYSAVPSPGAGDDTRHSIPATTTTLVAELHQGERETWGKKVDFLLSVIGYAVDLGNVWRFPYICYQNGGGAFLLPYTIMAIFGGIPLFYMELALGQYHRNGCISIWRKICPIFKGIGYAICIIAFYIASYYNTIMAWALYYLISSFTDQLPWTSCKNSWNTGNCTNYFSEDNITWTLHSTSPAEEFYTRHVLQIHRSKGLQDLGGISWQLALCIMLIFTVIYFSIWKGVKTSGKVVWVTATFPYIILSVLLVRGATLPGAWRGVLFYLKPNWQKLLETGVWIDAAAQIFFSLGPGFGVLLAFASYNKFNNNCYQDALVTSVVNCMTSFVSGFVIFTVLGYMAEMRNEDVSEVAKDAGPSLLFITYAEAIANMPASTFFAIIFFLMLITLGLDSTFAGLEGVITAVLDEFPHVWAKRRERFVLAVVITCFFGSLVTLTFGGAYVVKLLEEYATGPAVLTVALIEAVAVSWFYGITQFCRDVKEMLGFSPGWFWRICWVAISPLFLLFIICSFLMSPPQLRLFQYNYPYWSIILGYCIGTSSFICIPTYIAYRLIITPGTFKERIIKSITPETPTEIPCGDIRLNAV

In the case of `O=C(CCc1c[nH]c2ccccc12)NCCCCCCCNc1c2c(nc3cc(Cl)ccc13)CCCC2`, the IC50 (Acetylcholinesterase [1]) is reported as 0.06 nM, the Activity [2] is reported as 65% and the IC50 (Acetylcholinesterase [3]) is reported as 9 µM.

Molecule `Clc1cccc(Cl)c1CO/N=C/c1cc[n+](CCC[n+]2ccc(/C=N/OCc3c(Cl)cccc3Cl)cc2)cc1` has an IC50 (Acetylcholinesterase [1]) of 6000 nM and an Activity [2] of 55%.

`Cc1c(O[C@@H]2O[C@H](CO)[C@@H](O)[C@H](O)[C@H]2O)c(=O)ccn1C` showed an Activity [4] of over 50%.

Molecule `Cc1c(N2CCN(C)CC2)nc2ccccc2c1C(=O)NCCCCCCCNc1c2c(nc3ccccc13)CCCC2` has a Ki [5] of 5.6 nM.

With `CCN(CCCCCCNC1=CC(=O)C(NCCCCCCN(CC)Cc2ccccc2OC)=CC1=O)Cc1ccccc1OC` [MEMOQUIN] the IC50 (Beta-secretase 1) was 108 nM and the IC50 (Acetylcholinesterase [6]) was 5.93 µM.

In the case of `C#CCN(C)Cc1ccnc2c(O)cccc12`, the IC50 [7] is reported as 0.037 µM and the IC50 [8] is reported as 0.057 µM.

With `C#CCNCc1ccnc2c(O)cccc12` the IC50 [7] was 2.39 µM and the IC50 [8] was 4.24 µM.

In the case of `COc1ccccc1CNCCCNCCCNCCC[n+]1c(-c2ccccc2)c2cc(N)ccc2c2ccc(N)cc21`, the IC50 (Acetylcholinesterase [1]) is reported as 952 nM.

In the case of `Clc1cccc(Cl)c1CO/N=C/c1cc[n+](CCCc2ccccc2)cc1`, the IC50 (Acetylcholinesterase [1]) is reported as 180 nM and the Activity [2] is reported as 60%.

Molecule `COc1ccccc1CN(C)CCCCCC(=O)N(C)CCCCCCCCN(C)C(=O)CCCCCN(C)Cc1ccccc1OC` has a Kb [9] of 410 nM.

`O=C(CCCCC1CCSS1)NCCCNc1c2c(nc3cc(Cl)ccc13)CCCC2` (stereo not given) [LIPOCRINE] gave an IC50 (Acetylcholinesterase [1]) of 0.25 nM, an Activity [10] of 62% and an IC50 (Acetylcholinesterase [3]) of 45 µM.

`Fc1ccc(-c2cncc(CNC[C@H]3CCc4ccccc4O3)c2)cc1` [SARIZOTAN] showed an IC50 (D(2) dopamine receptor) of under 6 nM, an IC50 (D(3) dopamine receptor) of under 6 nM and an IC50 (D(4) dopamine receptor) of under 6 nM. It also gave an IC50 [11] of under 6 nM and an IC50 [5] of under 6 nM.

Molecule `C#CCN(C)C(C)Cc1cccc(OC(=O)N(C)CCCCCC)c1` (stereo not given) has an IC50 [7] of 20 µM and an IC50 [8] of 1.5 µM.

`CCN(CCCCCC(=O)N1CCC(C2CCN(C(=O)CCCCCN(CC)Cc3ccccc3OC)CC2)CC1)Cc1ccccc1OC` showed a Kb [9] of 660 nM.

For `C#CCN[C@@H]1CCc2ccc(OC(=O)N(C)CC)cc21` [LADOSTIGIL], the IC50 (Acetylcholinesterase [1]) was 52400 nM, the IC50 [7] was 85 µM and the IC50 [8] was 120 µM.

In the case of `c1ccc2c(NCCc3ccc(OCCCN4CCCCC4)cc3)c3c(nc2c1)CCCC3`, the IC50 (Acetylcholinesterase [1]) is reported as 2.6 nM and the Ki [5] is reported as 0.33 nM.

Molecule `C#CCN[C@@H]1CCc2cc(Cl)c(OC(=O)N(C)CCC)cc21` has an IC50 (Acetylcholinesterase [1]) of 43900 nM, an IC50 [7] of 375 µM and an IC50 [8] of 32 µM.

Molecule `C#CCN1CCN(Cc2ccnc3c(O)cccc23)CC1` has an IC50 [7] of 300 µM and an IC50 [8] of 64.2 µM.

In the case of `CN(CCN(C)Cc1cc(O[C@@H]2O[C@H](CO)[C@@H](O)[C@H](O)[C@H]2O)cc(C(C)(C)C)c1O)Cc1cc(O[C@H]2O[C@@H](CO)[C@H](O)[C@@H](O)[C@@H]2O)cc(C(C)(C)C)c1O`, the IC50 [4] is reported as over 50%.

With `O=C(O)CN(CCN(CC(=O)O)CC(=O)Nc1ccc(-c2nc3ccccc3s2)cc1)CCN(CC(=O)O)CC(=O)Nc1ccc(-c2nc3ccccc3s2)cc1` the IC50 [12] was over 50%.

`O=C(CCCCCCNc1c2c(nc3cc(Cl)cc(Cl)c13)CCCC2)NCCc1c[nH]c2ccccc12` showed a Selectivity ratio (Homo sapiens) of 1000.

`CCN(C)C(=O)Oc1cccc([C@H](C)N(C)C)c1` [RIVASTIGMINE] showed an IC50 [13] of over 1000 nM.

`O=C(CCc1c[nH]c2ccccc12)NCCCCCCNc1c2c(nc3cc(Cl)ccc13)CCCC2` showed an IC50 (Acetylcholinesterase [1]) of 0.02 nM and an IC50 [2] of 2000 nM.

B1: Quinone oxidoreductase (Homo sapiens), Q08257 (protein)
chain: MATGQKLMRAVRVFEFGGPEVLKLRSDIAVPIPKDHQVLIKVHACGVNPVETYIRSGTYSRKPLLPYTPGSDVAGVIEAVGDNASAFKKGDRVFTSSTISGGYAEYALAADHTVYKLPEKLDFKQGAAIGIPYFTAYRALIHSACVKAGESVLVHGASGGVGLAACQIARAYGLKILGTAGTEEGQKIVLQNGAHEVFNHREVNYIDKIKKYVGEKGIDIIIEMLANVNLSKDLSLLSHGGRVIVVGSRGTIEINPRDTMAKESSIIGVTLFSSTKEEFQQYAAALQAGMEIGWLKPVIGSQYPLEKVAEAHENIIHGSGATGKMILLL
In the case of B1, the Km [14] is reported as 12.7 µM.
